In patent publication US20080145858A1, “DETECTION AND IDENTIFICATION OF TOXICANTS BY MEASUREMENT OF GENE […]” (priority 2003, published 2008):

Tested on: Xenopus laevis cleavage stage embryos (stage 8)
Assay: Xenopus cDNA microarray, differential gene expression after PMA treatment during cleavage stage (Group I)
Format: in vivo
Details: PMA 100 ng/ml, stage 8
Description: Specifically, the method and screen of the present invention function as follows. EST clones produced from Xenopus laevis unfertilized eggs were used in the present study with ˜1,200 EST clones from a 18,500 EST clone set selected for production of a Xenopus cDNA microarray. The Xenopus microarray was used to measure the effect of chemical treatment on Xenopus embryo gene regulation. The chemical treatment was a phorbol ester, PMA. Xenopus eggs were obtained from females induced for ovulation and fertilized in vitro. Control Xenopus laevis embryos were allowed to develop to stage 8 blastula or stage 15 neurula. Treated embryos were exposed to PMA during cleavage stage or during neurulation with end points of blastula (stage 8) or neurula (stage 15). Specifically, PMA 100 ng/ml was added to the incubation media during cleavage stages for evaluation in stage 8 embryo or PMA was added during neural induction for evaluation in stage 15 embryos. RNA extracted from the embryos was used to generate fluorescent cDNA probes for Xenopus microarray analyses to measure differential gene expression with and without the phorbol ester treatment. Analysis was performed using paired RNA samples to compare PMA-treated and untreated embryos: Group I measured the effects of PMA-treatment during the cleavage stage in stage 8 embryos and Group II measured the effects of PMA-treatment during neurulation in stage 15 embryos. Group III measured the change in gene expression between stage 8 and stage 15 embryos.
cDNA fragments were obtained by PCR replication of Xenopus laevis unfertilized egg cDNA inserts, purified, quantitated and loaded onto glass chips by robotics. In addition to the selected ˜1,200 genes, 64 lambda Q gene, an internal control cDNA (Genomic Solutions, Inc., Ann Arbor, Mich.) was loaded on the chip. The insert DNA from ˜1,200 clones were PCR amplified using forward and reverse primers (GF.200 primers, Research Genetics, Huntsville, Ala.). A second PCR was carried out using 1 μl of the primary PCR (20 μl) for template. Excess dNTPs, polymerase and other PCR artifacts were removed from the secondary PCR reactions using Millipore Multiscreen plates (Millipore Corporation, Bedford, Mass.) using the standard protocol. The purity of the PCR products was assessed by electrophoresis and documented using an Alphalmager 1000 Digital Imaging System (Alpha Innotech Corporation, San Leandro, Calif.). The DNA obtained by PCR was quantitated using PicoGreen (Molecular Probes, Eugene, Oreg.). The DNA was denatured and arrayed onto amino-silane coated microscope slides (CMT-GAPS coated slides, Corning, Corning, N.Y.) using a Flexys robotic workstation (Genomic Solutions Inc.). The ˜1,200 PCR products were arrayed in duplicate on each slide and cross-linked. Each gene chip contained duplicate cDNA samples.
Total RNA was prepared from embryos treated in three separate dishes per treatment group that were pooled. Total RNA was isolated from the frog embryos (1,200 embryos for each probe production) using TRIzol extraction (Gibco BRL, Grand Island, N.Y.) and Qiagen RNeasy kits (Qiagen, Valencia, Calif.). The ethanol precipitated RNA was resuspended in RNase-free water, quantitated with RiboGreen (Molecular Probes, Eugene, Oreg.). Total RNA was further purified using oligoTex mRNA maxi kit (Qiagen Co.) with the bound mRNA eluted with minimum volume of elution buffer and precipitated with ethanol. The recovery rate of mRNA by the ethanol precipitation method was ˜70%. Cy3- or Cy5-tagged probes were produced from an mRNA mixture (20 μl) of Xenopus mRNA (5 μg) and lambda Q gene mRNA (3.5 ng) reverse-transcribed with oligo(dT)18-22 primer and dNTPs and the reverse-transcribed cDNA was cross-linked with Cy3 or Cy5 as described in Clontech Atlas™ Glass Fluorescent Labeling kit manual (www.clontech.com). After hydrolysis of the RNA and purification of the probe (Centricon 50, Millipore, Bedford, Mass.), the cDNA in TE buffer was quantitated by absorbance at 260 nm. […]

Compound: CCCCCCCCCCCCCC(=O)O[C@@H]1[C@@H](C)[C@@]2(O)[C@@H](C=C(CO)C[C@]3(O)C(=O)C(C)=C[C@@H]23)[C@@H]2C(C)(C)[C@]12OC(C)=O [PMA, phorbol 12-myristate 12-acetate]
- Ratio of Medians (Cy5/Cy3) Mean (PBX0138A04 mRNA): 2.99 ± 1.32
- Ratio of Medians (Cy5/Cy3) Second Spot (PBX0138A04 mRNA): 4.33
- (CY3/CY5) by Landmarks (1.6) (PBX0138C12 mRNA): 3.59
- (CY3/CY5) by all Data Points (1.3) (PBX0138C12 mRNA): 5.74
- Normalization by Landmarks (1.6) (PBX0138C12 mRNA): 0.28
- Normalization by all Data Points (1.3) (PBX0138C12 mRNA): 0.17
- Ratio of Medians (Cy5/Cy3) First Spot (PBX0138C12 mRNA): 0.14
- Ratio of Medians (Cy5/Cy3) Mean (PBX0138C12 mRNA): 0.13 ± 0.01
- Ratio of Medians (Cy5/Cy3) Second Spot (PBX0138C12 mRNA): 0.13
- Normalized by Landmarks (1.59) (PBX0138D01 mRNA): 4.45
- Normalized by all Data Points (1.28) (PBX0138D01 mRNA): 3.58
- Ratio of Medians (Cy5/Cy3) First Spot (PBX0138D01 mRNA): 3.50
- Ratio of Medians (Cy5/Cy3) Mean (PBX0138D01 mRNA): 2.80 ± 0.70
- Ratio of Medians (Cy5/Cy3) Second Spot (PBX0138D01 mRNA): 2.10
- (CY3/CY5) by Landmarks (1.6) (PBX0138E10 mRNA): 2.68
- (CY3/CY5) by all Data Points (1.3) (PBX0138E10 mRNA): 4.29
- Normalization by Landmarks (1.6) (PBX0138E10 mRNA): 0.37
- Normalization by all Data Points (1.3) (PBX0138E10 mRNA): 0.23
- Ratio of Medians (Cy5/Cy3) First Spot (PBX0138E10 mRNA): 0.15
- Ratio of Medians (Cy5/Cy3) Mean (PBX0138E10 mRNA): 0.18 ± 0.03
- Ratio of Medians (Cy5/Cy3) Second Spot (PBX0138E10 mRNA): 0.21
- (CY3/CY5) by Landmarks (1.6) (PBX0138G10 mRNA): 3.35
- (CY3/CY5) by all Data Points (1.3) (PBX0138G10 mRNA): 5.36
- Normalization by Landmarks (1.6) (PBX0138G10 mRNA): 0.30
- Normalization by all Data Points (1.3) (PBX0138G10 mRNA): 0.19
- Ratio of Medians (Cy5/Cy3) First Spot (PBX0138G10 mRNA): 0.10
- Ratio of Medians (Cy5/Cy3) Mean (PBX0138G10 mRNA): 0.14 ± 0.04
- Ratio of Medians (Cy5/Cy3) Second Spot (PBX0138G10 mRNA): 0.18
- (CY3/CY5) by Landmarks (1.6) (PBX0138G12 mRNA): 2.56
- (CY3/CY5) by all Data Points (1.3) (PBX0138G12 mRNA): 4.09
- Normalization by Landmarks (1.6) (PBX0138G12 mRNA): 0.39
- Normalization by all Data Points (1.3) (PBX0138G12 mRNA): 0.24
- Ratio of Medians (Cy5/Cy3) First Spot (PBX0138G12 mRNA): 0.17
- Ratio of Medians (Cy5/Cy3) Mean (PBX0138G12 mRNA): 0.19 ± 0.02
- Ratio of Medians (Cy5/Cy3) Second Spot (PBX0138G12 mRNA): 0.21
- Normalized by Landmarks (1.59) (PBX0139A08 mRNA): 4.21
- Normalized by all Data Points (1.28) (PBX0139A08 mRNA): 3.39
- Ratio of Medians (Cy5/Cy3) First Spot (PBX0139A08 mRNA): 2.00
- Ratio of Medians (Cy5/Cy3) Mean (PBX0139A08 mRNA): 2.65 ± 0.65
- Ratio of Medians (Cy5/Cy3) Second Spot (PBX0139A08 mRNA): 3.29
- Normalized by Landmarks (1.59) (PBX0139B06 mRNA): 5.45
- Normalized by all Data Points (1.28) (PBX0139B06 mRNA): 4.39
- Ratio of Medians (Cy5/Cy3) First Spot (PBX0139B06 mRNA): 4.00
- Ratio of Medians (Cy5/Cy3) Mean (PBX0139B06 mRNA): 3.43 ± 0.57
- Ratio of Medians (Cy5/Cy3) Second Spot (PBX0139B06 mRNA): 2.86
- (CY3/CY5) by Landmarks (1.6) (PBX0139D03 mRNA): 3.15
- (CY3/CY5) by all Data Points (1.3) (PBX0139D03 mRNA): 5.04
- Normalization by Landmarks (1.6) (PBX0139D03 mRNA): 0.32
- Normalization by all Data Points (1.3) (PBX0139D03 mRNA): 0.20
- Ratio of Medians (Cy5/Cy3) First Spot (PBX0139D03 mRNA): 0.04
- Ratio of Medians (Cy5/Cy3) Mean (PBX0139D03 mRNA): 0.15 ± 0.11
- Ratio of Medians (Cy5/Cy3) Second Spot (PBX0139D03 mRNA): 0.26
- (CY3/CY5) by Landmarks (1.6) (PBX0139F05 mRNA): 3.52
- (CY3/CY5) by all Data Points (1.3) (PBX0139F05 mRNA): 5.64
- Normalization by Landmarks (1.6) (PBX0139F05 mRNA): 0.28
- Normalization by all Data Points (1.3) (PBX0139F05 mRNA): 0.18
- Ratio of Medians (Cy5/Cy3) First Spot (PBX0139F05 mRNA): 0.15
- Ratio of Medians (Cy5/Cy3) Mean (PBX0139F05 mRNA): 0.14 ± 0.02
- Ratio of Medians (Cy5/Cy3) Second Spot (PBX0139F05 mRNA): 0.12
- (CY3/CY5) by Landmarks (1.6) (PBX0139F12 mRNA): 2.63
- (CY3/CY5) by all Data Points (1.3) (PBX0139F12 mRNA): 4.21
- Normalization by Landmarks (1.6) (PBX0139F12 mRNA): 0.38
- Normalization by all Data Points (1.3) (PBX0139F12 mRNA): 0.24
- Ratio of Medians (Cy5/Cy3) First Spot (PBX0139F12 mRNA): 0.20
- Ratio of Medians (Cy5/Cy3) Mean (PBX0139F12 mRNA): 0.18 ± 0.02
- Ratio of Medians (Cy5/Cy3) Second Spot (PBX0139F12 mRNA): 0.16
- (CY3/CY5) by Landmarks (1.6) (PBX0139H03 mRNA): 2.11
- (CY3/CY5) by all Data Points (1.3) (PBX0139H03 mRNA): 3.38
- Normalization by Landmarks (1.6) (PBX0139H03 mRNA): 0.47
- Normalization by all Data Points (1.3) (PBX0139H03 mRNA): 0.30
- Ratio of Medians (Cy5/Cy3) First Spot (PBX0139H03 mRNA): 0.26
- Ratio of Medians (Cy5/Cy3) Mean (PBX0139H03 mRNA): 0.23 ± 0.03
- Ratio of Medians (Cy5/Cy3) Second Spot (PBX0139H03 mRNA): 0.20
